Measured values reported in patent US20210277246A1, “PROBE FOR DETECTING CARBAPENEM-RESISTANT BACTERIA AND USE THEREOF” (priority 2018, published 2021).

How the values were obtained:
Test in all cases: MIC of carbapenems for isolates
Type in all cases: cell-based
[1] = tested on: Citrobacter freundii (KPC); conditions: 1 isolate
Escherichia coli (KPC) = conditions: 3 isolates
[2] = tested on: Klebsiella aerogenes (KPC); conditions: 1 isolate
Klebsiella oxytoca (KPC) = conditions: 1 isolate
[3] = tested on: Klebsiella pneumoniae (GES); conditions: 1 isolate
[4] = tested on: Citrobacter freundii (NDM); conditions: 1 isolate
[5] = tested on: Enterobacter cloacae (NDM); conditions: 2 isolates
Escherichia coli (NDM) = conditions: 4 isolates
[6] = tested on: Klebsiella pneumoniae (NDM); conditions: 1 isolate
[7] = tested on: Morganella morganii (NDM); conditions: 1 isolate
[8] = tested on: Enterobacter cloacae (VIM); conditions: 1 isolate
Klebsiella oxytoca (VIM) = conditions: 1 isolate
[9] = tested on: Klebsiella pneumoniae (VIM); conditions: 1 isolate
Escherichia coli (IMP) = conditions: 1 isolate
[10] = tested on: Citrobacter freundii (OXA); conditions: 1 isolate
Escherichia coli (OXA) = conditions: 3 isolates
[11] = tested on: Klebsiella pneumoniae (OXA); conditions: 2 isolates
[12] = tested on: Klebsiella pneumoniae (KPC/OXA); conditions: KPC/OXA co-producing, 2 isolates
[13] = tested on: Klebsiella pneumoniae (NDM/OXA); conditions: NDM/OXA co-producing, 1 isolate
[14] = tested on: Citrobacter freundii (non-CP-CRE); conditions: 1 isolate
[15] = tested on: Enterobacter amnigenus (non-CP-CRE); conditions: Lelliottia amnigena, 4 isolates
[16] = tested on: Escherichia coli (non-CP-CRE); conditions: 8 isolates
[17] = tested on: Klebsiella pneumoniae (non-CP-CRE); conditions: 22 isolates
[18] = tested on: Escherichia coli (ESBL-producer, CTX-M); conditions: 29 isolates
[19] = tested on: Klebsiella pneumoniae (ESBL-producer, CTX-M); conditions: 24 isolates
[20] = tested on: Escherichia coli (non-producer); conditions: 32 isolates
[21] = tested on: Klebsiella pneumoniae (non-producer); conditions: 21 isolates
[22] = tested on: Klebsiella aerogenes (non-CP-CRE); conditions: 3 isolates

Structure (SMILES)	MIC [1]	MIC (Escherichia coli (KPC))	MIC [2]	MIC (Klebsiella oxytoca (KPC))	MIC [3]	MIC [4]	MIC [5]	MIC (Escherichia coli (NDM))	MIC [6]	MIC [7]	MIC [8]	MIC (Klebsiella oxytoca (VIM))	MIC [9]	MIC (Escherichia coli (IMP))	MIC [10]	MIC (Escherichia coli (OXA))	MIC [11]	MIC [13]	MIC [14]	MIC [15]	further results
C[C@@H](O)[C@H]1C(=O)N2C(C(=O)O)=C(SCCN=CN)C[C@H]12 [IPM, imipenem]	> 16 µg/mL	2 to 8 µg/mL	> 16 µg/mL	> 16 µg/mL	> 16 µg/mL	8 µg/mL	> 16 µg/mL	8 to 16 µg/mL	> 16 µg/mL	> 16 µg/mL	4 µg/mL	2 µg/mL	> 16 µg/mL	1 µg/mL	2 µg/mL	0.5 to 8 µg/mL	2 to 4 µg/mL	4 µg/mL	1 µg/mL	8 to 16 µg/mL	MIC [12]: 4 to 16 µg/mL; MIC [16]: 0.5 to 16 µg/mL; MIC [17]: 0.5 to 16 µg/mL; MIC [18]: 0.25 to 1 µg/mL; MIC [19]: 0.25 to 1 µg/mL; MIC [20]: 0.25 to 0.5 µg/mL; MIC [21]: 0.25 to 1 µg/mL
C[C@@H](O)[C@H]1C(=O)N2C(C(=O)O)=C(S[C@@H]3CN[C@H](C(=O)N(C)C)C3)[C@H](C)[C@H]12 [MEM, meropenem]	8 µg/mL	4 µg/mL	16 µg/mL	> 16 µg/mL	> 16 µg/mL	16 µg/mL	> 16 µg/mL	> 16 µg/mL	> 16 µg/mL	4 µg/mL	2 µg/mL	1 µg/mL	> 16 µg/mL	1 µg/mL	0.5 µg/mL	0.25 to 4 µg/mL	0.5 to 16 µg/mL	4 µg/mL	0.5 µg/mL	2 to 8 µg/mL	MIC [16]: 0.25 to 8 µg/mL; MIC [22]: 0.5 to 16 µg/mL; MIC [17]: 0.5 to 8 µg/mL; MIC [19]: ≤ 0.25 µg/mL; MIC [20]: ≤ 0.25 µg/mL; MIC [21]: ≤ 0.25 µg/mL
